Square brackets hold non-standard residues; d marks the D form. Peptide text beside a SMILES is read from it. sY = N[C@@H](Cc1ccc(OS(=O)(=O)O)cc1)C(=O)O; pGlu = O=C1CC[C@@H](C(=O)O)N1
Tests used:
[1] = tested on: apical muscle preparations; test: In vitro contraction of apical muscle preparations (organ bath); set-up: species or system Asterias rubens; conditions: for contracting action on apical muscle, % of the effect of 10 µM acetylcholine: highest concentration tested (1 µM), n = 20–23; for contraction of apical muscle preparations: in vitro
Description: (§1) Effects of peptides on preparations were tested and recorded using an isotonic transducer (MLT0015, ADInstruments Pty Ltd) connected to a bridge amplifier (FE221 Bridge Amp, ADInstruments Pty Ltd) linked to PowerLab data acquisition hardware (2/36, ADInstruments Pty Ltd). Data were collected and analysed using LabChart (RRID:SCR_017551; v8.0.7) software installed on a laptop computer (Lenovo E540, Windows 7 Professional). Stock solutions of synthetic peptides were prepared in distilled water and added to the organ bath to achieve final concentrations ranging from 0.1 nM to 1 μM. To assess the viability of preparations and to enable normalization of responses to ArSK/CCK1 or ArSK/CCK2, the starfish neuropeptide NGFFYamide (100 nM) was tested on cardiac stomach preparations and acetylcholine (10 µM) was tested on tube foot and apical muscle preparations. To assess the importance of tyrosine sulphation for peptide bioactivity, a non-sulphated analog of ArSK/CCK2 (ArSK/CCK2(ns)) was also tested on cardiac stomach (n = 5), tube foot, and apical muscle preparations (data not shown).

[2] = tested on: cardiac stomach preparations; test: In vitro contraction of cardiac stomach preparations (organ bath); set-up: species or system Asterias rubens; conditions: for contraction of cardiac stomach preparations: in vitro, 1 nM to 1 μM, n = 5–9; for effect compared with NGFFYamide (100 nM): peptide 1 µM, Student's t-test p > 0.05, data not shown
Description: as §1

[3] = tested on: affinity-purified rabbit antibodies to ArSK/CCK1; test: ELISA specificity test of affinity-purified antibodies to ArSK/CCK1; type: binding; conditions: TEA fraction diluted 1:10; peptide 0.1 nmol (100 µl of 1 µM); mean of six replicates
Text: To generate antibodies to ArSK/CCK1, an N-terminally truncated peptide analog of ArSK/CCK1 with the addition of a reactive N-terminal lysine residue was synthesized (KY(SO3H)GHGLFW-NH2 , Peptide Protein Research Ltd, Fareham, UK). To generate antibodies to ArSK/CCKR, a peptide corresponding to the C-terminal 15 amino acids of ArSK/CCK-R with addition of an N-terminal reactive lysine residue was synthesized (KPSPTNYTNVSSDSSV, Peptide Protein Research Ltd, Fareham, UK). These peptides were conjugated to porcine thyroglobulin (Sigma-Aldrich, Gillingham, UK) as a carrier protein using 5% glutaraldehyde (Sigma-Aldrich, Gillingham, UK) in phosphate buffer (0.1 M; pH 7.2) and the conjugate was used for immunisation of a rabbit for ArSK/CCK1 (70-day protocol; Charles River Biologics, Romans, France) and a guinea pig for ArSK/CCKR (56-day protocol; Charles River Biologics, Romans, France). The antigens were emulsified in Freund’s complete adjuvant for primary immunisations (~100 nmol antigen peptide) and in Freund’s incomplete adjuvant for three booster immunisations (~50 nmol antigen peptide). The presence of antibodies to the antigen peptides in post-immunisation serum samples was assessed using an enzyme-linked immunosorbent assay (ELISA), in comparison with pre-immune serum (Figure 5—figure supplement 1a; Figure 6—figure supplement 1). Antibodies to the antigen peptides were purified from the final bleed antiserum by affinity purification using the AminoLink Plus Immobilization Kit (Thermo Fisher Scientific, Waltham, MA), with bound antibodies eluted using glycine elution buffer (6.3 ml of 100 mM glycine [VWR Chemicals, Leicestershire, UK] and 0.7 ml of Tris [1 M, pH = 7.0]) and […] (TEA) elution buffer (6.3 ml of TEA [Sigma-Aldrich, Gillingham, UK] and 0.7 ml of Tris [1 M, pH = 7.0]). Eluates were dialyzed and sodium azide (0.1%) was added for long-term storage of the affinity-purified antibodies at 4°C. The specificity of ArSK/CCK1 antibodies eluted with TEA, which were subsequently used for immunohistochemistry (see below), was assessed by ELISA by testing them at a concentration of 1:10 with the following synthetic peptides (100 µl at a concentration of 1 µM dissolved in carbonate/bicarbonate buffer [25 mM sodium carbonate, 25 mM sodium bicarbonate, pH = 9.8]): ArSK/CCK1, ArSK/CCK2, ArSK/CCK2(ns) and the A. rubens luqin-type peptide ArLQ (Figure 5—figure supplement 1b). The rabbit antiserum to ArSK/CCK1 has been assigned the RRID:AB_2877176 and the guinea pig antiserum to ArSK/CCKR has been assigned the RRID:AB_2891354.

[4] = tested on: CHO-K1 cells transfected with an empty vector; test: Control: CHO-K1 aequorin (G5A) cells transfected with empty pcDNA 3.1(+) vector; type: cell-based, Chinese hamster
Text: To enable testing of ArSK/CCK1 and ArSK/CCK2 as candidate ligands for ArSK/CCKR, a full-length cDNA encoding ArSK/CCKR was synthesized by GenScript (Piscataway, NJ) and cloned into pcDNA 3.1+ vector (Invitrogen, Thermo Fisher Scientific, Waltham, MA). A partial Kozak translation initiation sequence (CACC) was introduced upstream to the start codon (ATG). CHO-K1 cells stably expressing the mitochondrial targeted calcium-sensitive bioluminescent reporter GFP-aequorin fusion protein (G5A) ([Baubet et al., 2000]) were used as a heterologous expression system for ArSK/CCKR. These cells have been used previously for neuropeptide receptor deorphanisation ([Bauknecht and Jékely, 2015]) and were generously supplied to us by Dr Gáspár Jékely (University of Exeter). The cell line was generated using the CHO-K1 cell line from Sigma-Aldrich (85051005; RRID: CVCL_0214), which is certified by the European Collection of Authenticated Cell Cultures (ECACC), and expression of the GFP-aequorin fusion protein (G5A) in the cell line was determined by functionality in displaying calcium-activated luminescence. […] Cells were cultured, co-transfected with the pcDNA 3.1+ vector containing the ArSK/CCKR cDNA sequence and plasmids encoding the promiscuous human G-protein Gα16. Then bioluminescence-based receptor assays were performed, as described previously for A. rubens luqin-type receptors ([Yañez-Guerra et al., 2018]).
The peptides were diluted in distilled water and tested as candidate ligands for ArSK/CCKR at concentrations ranging from 3 × 10^−17 to 10^−4 M. Concentration-response data were determined as a percentage of the highest response for each peptide (100% activation). EC50 values were calculated from concentration-response curves based on four to six independent transfections and averaging two to three replicates in each transfection using Prism 6.0 (RRID:SCR_002798; GraphPad software, La Jolla, CA). Cells transfected with an empty vector were used for control experiments.

tube foot preparations = test: In vitro contraction of tube foot preparations (organ bath); set-up: species or system Asterias rubens; conditions: for contraction of tube foot preparations: in vitro, 1 nM to 1 µM, n = 8–10; for mean effect on tube foot preparations, % of the effect of 10 µM acetylcholine: peptide 1 µM
Description: as §1

| SMILES | contracting action on apical muscle, % of the effect of 10 µM acetylcholine [1] | contraction of apical muscle preparations [1] | contraction of cardiac stomach preparations [2] | effect compared with NGFFYamide (100 nM) [2] | ELISA reactivity (optical density) with antibodies to ArSK/CCK1 [3] | luminescence response [4] | effectiveness on tube foot preparations compared with ArSK/CCK2 (tube foot preparations; 25 and 100 nM, Bonferroni's test p < 0.01 and 0.05) | contraction of tube foot preparations (tube foot preparations) | mean effect on tube foot preparations, % of the effect of 10 µM acetylcholine (tube foot preparations) |
| --- | --- | --- | --- | --- | --- | --- | --- | --- | --- |
| CC(C)C[C@H](NC(=O)CNC(=O)[C@H](Cc1c[nH]cn1)NC(=O)CNC(=O)[C@H](Cc1ccc(OS(=O)(=O)O)cc1)NC(=O)[C@H](CC(=O)O)NC(=O)[C@H](CC(=O)O)NC(=O)[C@@H](NC(=O)[C@H](CCCCN)NC(=O)[C@H](CO)NC(=O)[C@@H]1CCC(=O)N1)C(C)C)C(=O)N[C@@H](Cc1ccccc1)C(=O)N[C@@H](Cc1c[nH]c2ccccc12)C(N)=O [ArSK/CCK1] ([pGlu]SKVDD[sY]GHGLFW-NH2) | ~ 40% | caused contraction | concentration-dependent contraction | not significantly different | above the OD value for the negative control | did not elicit luminescence responses | significantly more effective than ArSK/CCK2 | concentration-dependent contraction | ~ 220% |
| CC(C)C[C@H](NC(=O)CNC(=O)[C@H](Cc1ccccc1)NC(=O)CNC(=O)[C@H](Cc1ccc(O)cc1)NC(=O)[C@H](CCC(N)=O)NC(=O)[C@H](CC(=O)O)NC(=O)[C@H](CC(=O)O)NC(=O)CNC(=O)CN)C(=O)N[C@@H](Cc1ccccc1)C(=O)N[C@@H](Cc1ccccc1)C(N)=O [ArSK/CCK2(ns)] (H-GGDDQYGFGLFF-NH2; N-terminus assumed) |  | no effect | modest contraction |  | do not cross-react | did not elicit luminescence responses |  | did not cause contraction |  |
| CC(C)C[C@H](NC(=O)CNC(=O)[C@H](Cc1ccccc1)NC(=O)CNC(=O)[C@H](Cc1ccc(OS(=O)(=O)O)cc1)NC(=O)[C@H](CCC(N)=O)NC(=O)[C@H](CC(=O)O)NC(=O)[C@H](CC(=O)O)NC(=O)CNC(=O)CN)C(=O)N[C@@H](Cc1ccccc1)C(=O)N[C@@H](Cc1ccccc1)C(N)=O [ArSK/CCK2] (H-GGDDQ[sY]GFGLFF-NH2; N-terminus assumed) | ~ 40% | caused contraction | concentration-dependent contraction | not significantly different | do not cross-react | did not elicit luminescence responses |  | concentration-dependent contraction | ~ 110% |

From PMC8428848, “Ancient role of sulfakinin/cholecystokinin-type signalling in inhibitory regulation of feeding processes revealed in an echinoderm” (eLife, 2021)
